In US20120202814A1, “COMPOUNDS WITH DDX3 INHIBITORY ACTIVITY AND USES THEREOF” (UNIVERSITÀ DEGLI STUDI DI SIENA, priority 2009, published 2012):

Legend:
[1] = biological target: T1, human DDX3 (ATPase activity) (Homo sapiens, UniProt O00571); assay: Human DDX3 ATPase activity assay (luciferase-based luminescence); type: biochemical; settings: DDX3 ATPase activity; read-out: Ki (μM), apparent equilibrium dissociation constant for the inhibitor to the target enzyme DDX3
T1 construct: made in house; host or cells: E. coli
Procedure: ATPase activity was tested with a luciferase-based luminescence assay (Easylite-Kinase, Perkin Elmer) on 96 wells microtiter plates. Briefly, recombinant purified human DDX3 (50-100 ng) was incubated in a 15 μL total reaction volume with reaction buffer (25 mM TrisHCl pH 7.5, 5 mM MgCl2), in the presence of increasing amounts of ATP and/or different combinations of ATP and the inhibitor to be tested. Reference curves in the absence of inhibitor (giving the 100% of enzymatic activity) and in the absence of enzyme (giving the baseline), were also included in each experiment. Reading was performed with a Microbeta Trilux (Perkin Elmer) luminometer, according to the manufacturer's protocol.
ATPase reactions were performed as described, in the presence of increasing amounts of inhibitor and variable ATP concentrations. Variations of the initial velocities of the reaction as a function of ATP concentrations in the absence or presence of 4 were analyzed with the equation: […]
Variation of the % inhibition as a function of compound FE15 at different ATP concentrations were fitted to the equation for cooperative binding: […]
where Vmax is the apparent maximal rate of the reaction in the absence of the inhibitor, [I] is the variable inhibitor concentration, n is the cooperativity index and Ki(app) is the apparent inhibition constant. Comparatively, fitting was done with the same Eq. (2) where n was kept fixed at the value of 1 (non-cooperativity hypothesis). F test was used to compare the two fittings and p value was calculated.
Human recombinant DDX3 was cloned, expressed and purified as described (Franca et al. Proteins 2007, 67, 1128-37).
The anti-DDX3 activity of the compounds of the invention was evaluated by in vitro ATPase activity assay using the recombinant human DDX3 protein produced in E. coli. The potency of inhibition (Ki) for each molecule was calculated, representing the concentration of the inhibitor able to reduce the DDX3 ATPase activity by 50%

T1 sequence (O00571 whole entry): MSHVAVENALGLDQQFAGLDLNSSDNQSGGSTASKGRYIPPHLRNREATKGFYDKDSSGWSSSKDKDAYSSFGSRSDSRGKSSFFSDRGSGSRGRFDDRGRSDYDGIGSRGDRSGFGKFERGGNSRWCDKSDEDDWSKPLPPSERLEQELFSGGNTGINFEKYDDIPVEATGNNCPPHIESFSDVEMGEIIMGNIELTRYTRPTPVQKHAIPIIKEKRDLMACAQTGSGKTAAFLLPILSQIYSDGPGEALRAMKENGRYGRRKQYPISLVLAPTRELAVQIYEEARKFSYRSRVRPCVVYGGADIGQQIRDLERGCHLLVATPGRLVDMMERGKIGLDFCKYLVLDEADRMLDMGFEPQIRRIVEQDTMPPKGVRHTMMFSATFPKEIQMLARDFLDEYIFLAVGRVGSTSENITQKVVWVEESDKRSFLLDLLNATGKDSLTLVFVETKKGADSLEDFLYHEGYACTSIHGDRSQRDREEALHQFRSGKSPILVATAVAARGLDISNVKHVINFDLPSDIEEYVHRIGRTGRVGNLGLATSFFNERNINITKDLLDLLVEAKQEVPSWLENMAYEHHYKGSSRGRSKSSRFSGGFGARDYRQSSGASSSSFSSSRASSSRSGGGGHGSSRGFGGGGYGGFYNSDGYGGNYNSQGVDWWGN

melting point [°C] | Ki [1] [µM] | Structure (SMILES)
155.5 to 156 | 2.6 | Fc1ccc(Nc2nc(N/N=C/c3c(F)cccc3F)nc(N3CCOCC3)n2)cc1 [Compound 11c, (E)-4-(2-(2,6-difluorobenzylidene)hydrazinyl)-N-(4-fluorophenyl)-6-morpholino-1,3,5-triazin-2-amine]
144 to 144.5 | 2.9 | O=C1Nc2ccccc2/C1=N/Nc1nc(NCc2cccc(Cl)c2)nc(N2CCOCC2)n1 [Compound 14f, (Z)-3-(2-(4-(3-Chlorobenzylamino)-6-morpholino-1,3,5-triazin-2-yl)hydrazono)indolin-2-one]
163.5 to 164 | 62 | Oc1ccccc1/C=N/Nc1nc(NCc2cccc(Cl)c2)nc(N2CCOCC2)n1 [Compound 15j, (E)-2-((2-(4-(3-chlorobenzylamino)-6-morpholino-1,3,5-triazin-2-yl)hydrazono)methyl)phenol]
 | 9 | OCCc1cc(Nc2ccc(F)cc2)nc(N/N=C/c2ccccc2O)n1 [Compound 22, 2-((2-(4-(4-Fluorophenylamino)-6-(2-hydroxyethyl)pyrimidin-2-yl)hydrazono)methyl)phenol]
235 to 237 | 0.5 | O=C(CCN1C(=O)/C(=C/c2cc(F)cc(F)c2)SC1=S)Nc1ccccc1O [Compound 35c, 3-((Z)-5-(3,5-Difluorobenzylidene)-4-oxo-2-thioxothiazolidin-3-yl)-N-(2-hydroxyphenyl) propanamide]
208 to 209 | 97 | Cc1cccc(/C=C2\SC(=S)N(CCC(=O)Nc3ccccc3O)C2=O)c1 [Compound 35d, 3-((Z)-5-(3-Methylbenzylidene)-4-oxo-2-thioxothiazolidin-3-yl)-N-(2-hydroxyphenyl) propanamide]
200 to 202 | 10 | COc1cccc(/C=C2\SC(=S)N(CCC(=O)Nc3ccccc3O)C2=O)c1 [Compound 35e, 3-((Z)-5-(3-Methoxybenzylidene)-4-oxo-2-thioxothiazolidin-3-yl)-N-(2-hydroxyphenyl) propanamide]
 | 3.2 | Clc1ccccc1-c1ccc(/C=N/Nc2nc(Nc3ccccc3)nc(N3CCOCC3)n2)o1 [FE-56AA]
 | 2 | O=C1Nc2ccccc2/C1=N\Nc1nc(Nc2cccc(Cl)c2)nc(N2CCOCC2)n1 [FE-56AD]
 | 3.2 | Cc1ccc(Nc2nc(N/N=C3/C(=O)Nc4ccccc43)nc(N3CCOCC3)n2)cc1Cl [FE-56AH]
 | 2.2 | CC(=O)Nc1ccc(/C(C)=N/Nc2nc(Nc3ccccc3)nc(N3CCOCC3)n2)cc1 [FE-56AI]
 | 1.6 | Cc1ccc(Nc2nc(N/N=C/c3ccccc3O)nc(N3CCOCC3)n2)cc1Cl [FE-56AM]
 | 0.5 | CC(=O)Nc1ccc(/C(C)=N/Nc2nc(NCc3ccccc3)nc(N3CCOCC3)n2)cc1 [FE-56AN]
 | 33 | Oc1ccc(/C=N/Nc2nc(Nc3ccccc3)nc(Nc3ccccc3)n2)c(O)c1 [FE-56I]
 | 18 | Clc1ccc(/C=N/Nc2nc(Nc3ccccc3)nc(Nc3ccccc3)n2)cc1Cl [FE-56O]
 | 6.3 | O=C(Oc1cccc(/C=N/Nc2nc(Nc3ccccc3)nc(N3CCOCC3)n2)c1)c1ccco1 [FE-56U]
 | 3.6 | O=[N+]([O-])c1ccc(Cl)c(-c2ccc(/C=N/Nc3nc(Nc4ccc(F)cc4)nc(N4CCOCC4)n3)o2)c1 [FE-56V]
 | 1.9 | COc1ccc(Nc2nc(NCc3ccco3)nc(N/N=C/c3ccc(-c4ccccc4[N+](=O)[O-])o3)n2)cc1 [FE-56Z]
 | 0.9 | COc1cc(/C=C2\SC(=S)N(CCC(=O)N3CCCc4ccccc43)C2=O)cc(OC)c1OC [FE-69]
 | 0.4 | O=C(CCN1C(=O)/C(=C/c2ccc3c(c2)OCO3)SC1=S)Nc1ccccc1C(=O)O [FE-70]
 | 0.1 | COc1cc(/C=C2\SC(=S)N(CCC(=O)Nc3ccccc3O)C2=O)cc(OC)c1OC [FE-74]
 | 2 | COc1ccc(/C=C2\SC(=S)N(CCC(=O)Nc3ccccc3C(=O)O)C2=O)cc1 [FE-77]

Continued, compound first:

Structure (SMILES) | melting point [°C] | Ki [1] [µM]
O=C1/C(=C/c2cccc(Br)c2)SC(=S)N1CCc1ccccc1 [Compound 3a, (Z)-5-(3-bromobenzylidene)-3-phenethyl-2-thioxothiazolidin-4-one] | 102 to 104 | 
O=C1/C(=C/c2cccc(Br)c2)SC(=S)N1Cc1ccccc1 [Compound 3b, (Z)-5-(3-bromobenzylidene)-3-benzyl-2-thioxothiazolidin-4-one] | 112 to 113 | 
C#CN1C(=O)/C(=C/c2cccc(Br)c2)SC1=S [Compound 3c, (Z)-5-(3-bromobenzylidene)-3-ethynyl-2-thioxothiazolidin-4-one] | 159 to 161 | 
COC(CN1C(=O)/C(=C/c2cccc(Br)c2)SC1=S)OC [Compound 3d, (Z)-5-(3-bromobenzylidene)-3-(2,2-dimethoxyethyl)-2-thioxothiazolidin-4-one] | 124 to 126 | 
CCCCN1C(=O)/C(=C/c2cccc(Br)c2)SC1=S [Compound 3e, (Z)-5-(3-bromobenzylidene)-3-butyl-2-thioxothiazolidin-4-one] | 113 to 115 | 
COc1cccc(/C=C2\SC(=S)N(CCc3ccccc3)C2=O)c1 [Compound 3f, (Z)-5-(3-methoxybenzylidene)-3-phenethyl-2-thioxothiazolidin-4-one] | 122 to 125 | 
O=C1/C(=C/c2ccco2)SC(=S)N1CCc1ccccc1 [Compound 3g, (Z)-5-((furan-2-yl)methylene)-3-phenethyl-2-thioxothiazolidin-4-one] | 150 to 152 | 
O=C1/C(=C/c2cccnc2)SC(=S)N1CCc1ccccc1 [Compound 3h, (Z)-3-phenethyl-5-((pyridin-3-yl)methylene)-2-thioxothiazolidin-4-one] | 138 to 140 | 
O=C1/C(=C/c2ccc3ccccc3c2)SC(=S)N1CCc1ccccc1 [Compound 3i, (Z)-5-((naphthalen-3-yl)methylene)-3-phenethyl-2-thioxothiazolidin-4-one] | 174 to 176 | 
O=C(NCCN1C(=O)/C(=C/c2cccc(Br)c2)SC1=S)c1ccccc1O [Compound 3j, N-(2-((Z)-5-(3-Bromobenzylidene)-4-oxo-2-thioxothiazolidin-3-yl)ethyl)-2-hydroxybenzamide] |  | 4.2
O=C(NCCN1C(=O)/C(=C/c2cccc(F)c2)SC1=S)c1ccccc1O [Compound 3k, N-(2-((Z)-5-(3-Fluorobenzylidene)-4-oxo-2-thioxothiazolidin-3-yl)ethyl)-2-hydroxy-benzamide] |  | 4.3
O=C(CCN1C(=O)C/C(=C\c2cccc(Br)c2)C1=O)Nc1ccccc1O [Compound 6b, 3-((E)-3-(3-bromobenzylidene)-2,5-dioxopyrrolidin-1-yl)-N-(2-hydroxyphenyl)propanamide] |  | 28
Fc1ccc(Nc2nc(N/N=C/c3cccc4ccccc34)nc(N3CCOCC3)n2)cc1 [Compound 11a, (E)-N-(4-fluorophenyl)-4-morpholino-6-(2-(naphthalen-1-ylmethylene)hydrazinyl)-1,3,5-triazin-2-amine] | 220 to 220.4 | 86
Fc1ccc(Nc2nc(N/N=C/c3ccc4ccccc4c3)nc(N3CCOCC3)n2)cc1 [Compound 11b, (E)-N-(4-fluorophenyl)-4-morpholino-6-(2-(naphthalen-2-ylmethylene)hydrazinyl)-1,3,5-triazin-2-amine] | 225 to 226 | 8.5
